# In ChEMBL document CHEMBL2385021, “Discovery of MK-3168: A PET Tracer for Imaging Brain Fatty Acid Amide Hydrolase” (ACS Med Chem Lett, 2013):
# pIC50, pKd: −log10 of the molar value.
# Legend:
# [1] = Lipophilicity, log D of the compound at pH 7.3 by HPLC analysis; type: physicochemical; settings: buffer
# [2] = molecular target: T1, Fatty-acid amide hydrolase 1 (Rattus norvegicus, UniProt P97612); assay: Inhibition of rat FAAH expressed in CHO cell lysates assessed as arachidonyl-7-amino-4-methylcoumarin amide hydrolysis to 7-amino 4-methyl coumarin preincubated for 15 mins prior to substrate addition measured after 1 to 3 hrs by fluorescence assay; type: cell-free
# T1 sequence (P97612 whole entry): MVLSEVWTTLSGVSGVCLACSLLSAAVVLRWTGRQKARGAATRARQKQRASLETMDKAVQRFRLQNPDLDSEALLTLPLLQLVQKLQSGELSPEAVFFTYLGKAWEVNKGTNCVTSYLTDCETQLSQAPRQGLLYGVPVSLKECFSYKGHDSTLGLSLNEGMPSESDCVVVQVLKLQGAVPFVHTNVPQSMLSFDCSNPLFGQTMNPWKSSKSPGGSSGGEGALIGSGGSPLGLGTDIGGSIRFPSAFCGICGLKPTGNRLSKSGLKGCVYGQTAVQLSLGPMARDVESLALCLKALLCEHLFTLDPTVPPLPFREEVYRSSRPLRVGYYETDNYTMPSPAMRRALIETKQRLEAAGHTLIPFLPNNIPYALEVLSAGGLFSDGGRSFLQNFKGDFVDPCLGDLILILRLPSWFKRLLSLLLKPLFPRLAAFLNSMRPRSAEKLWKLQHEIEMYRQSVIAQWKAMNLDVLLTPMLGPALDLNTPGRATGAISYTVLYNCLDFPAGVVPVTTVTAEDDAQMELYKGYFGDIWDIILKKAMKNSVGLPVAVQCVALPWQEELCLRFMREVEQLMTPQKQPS
# [3] = Inhibition of rhesus monkey FAAH expressed in CHO cell lysates assessed as arachidonyl-7-amino-4-methylcoumarin amide hydrolysis to 7-amino 4-methyl coumarin preincubated for 15 mins prior to substrate addition measured after 1 to 3 hrs by fluorescence assay; type: cell-free, Macaca mulatta
# [4] = molecular target: T2, Fatty-acid amide hydrolase 1 (Homo sapiens, UniProt O00519); assay: Inhibition of human FAAH expressed in CHO cell lysates assessed as arachidonyl-7-amino-4-methylcoumarin amide hydrolysis to 7-amino 4-methyl coumarin preincubated for 15 mins prior to substrate addition measured after 1 to 3 hrs by fluorescence assay; type: cell-free
# T2 sequence (O00519 whole entry): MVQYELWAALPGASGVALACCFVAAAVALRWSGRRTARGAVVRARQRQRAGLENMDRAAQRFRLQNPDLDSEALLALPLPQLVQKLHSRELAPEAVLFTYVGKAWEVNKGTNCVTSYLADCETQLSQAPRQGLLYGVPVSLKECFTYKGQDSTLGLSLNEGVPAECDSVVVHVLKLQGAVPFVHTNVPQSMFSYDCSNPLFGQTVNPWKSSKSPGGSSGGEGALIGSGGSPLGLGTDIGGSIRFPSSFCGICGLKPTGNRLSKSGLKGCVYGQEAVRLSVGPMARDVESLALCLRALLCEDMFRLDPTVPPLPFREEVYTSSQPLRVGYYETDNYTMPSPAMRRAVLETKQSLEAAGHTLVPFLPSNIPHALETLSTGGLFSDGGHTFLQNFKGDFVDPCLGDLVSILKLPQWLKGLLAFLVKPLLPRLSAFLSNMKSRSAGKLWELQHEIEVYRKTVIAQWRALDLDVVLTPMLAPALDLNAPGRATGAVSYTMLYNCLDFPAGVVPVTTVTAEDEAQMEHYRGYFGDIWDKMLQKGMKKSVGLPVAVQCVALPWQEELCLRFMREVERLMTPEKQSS
# [5] = molecular target: T3, Fatty-acid amide hydrolase 1 (Homo sapiens) (UniProt O00519); assay: (§1) Binding affinity to FAAH in human cortical homogenates; settings: tested as the 3H-labelled form
# T3 sequence (whole entry): T2 sequence (O00519 whole entry)
# Macaca mulatta [6] = organism: Macaca mulatta; assay: (§2) Binding affinity to FAAH in rhesus monkey cortical homogenates; type: tissue-based; settings: tested as the 3H-labelled form
# [7] = Ratio of drug level in brain to plasma in rat at 2 mg/kg, po after 2 hrs; type: ADME, organism-based; parameters: dose 2 mg/kg, route oral; settings: read-out: BPR
# Brain [8] = assay: Drug uptake in rat brain at 2 mg/kg, po after 2 hrs; type: ADME, organism-based; parameters: dose 2 mg/kg, route oral; settings: in vivo
# [9] = Activity at human P-glycoprotein; type: ADME
# [10] = Activity at rat P-glycoprotein; type: ADME
# Cannabinoid receptor 2 = Cannabinoid receptor 2 (Homo sapiens, UniProt P34972); assay: Inhibition of CB2 receptor (unknown origin)
# Cytochrome P450 3A4 = Cytochrome P450 3A4 (Homo sapiens, UniProt P08684); assay: Inhibition of CYP3A4 (unknown origin); type: ADME
# Cannabinoid receptor 1 = Cannabinoid receptor 1 (Homo sapiens, UniProt P21554); assay: Inhibition of CB1 receptor (unknown origin)
# [11] = molecular target: Voltage-gated inwardly rectifying potassium channel KCNH2 (Homo sapiens, UniProt Q12809); assay: Inhibition of human ERG
# [12] = Inhibition of L-type calcium channel diltiazem binding site (unknown origin); parameters: species or system Homo sapiens
# Phosphodiesterase 4 = Phosphodiesterase 4 (Homo sapiens, UniProt P27815+Q08499+Q07343+Q08493); assay: Inhibition of phosphodiesterase PDE4 (unknown origin); type: protein assay
# Acetylcholinesterase = Acetylcholinesterase (Homo sapiens, UniProt P22303); assay: Inhibition of acetyl cholinesterase (unknown origin)
# Macaca mulatta [13] = organism: Macaca mulatta; assay: Inhibition of FAAH in rhesus monkey whole blood; type: tissue-based
# [14] = molecular target: T3, Fatty-acid amide hydrolase 1 (Homo sapiens); assay: Inhibition of FAAH in human whole blood
# [15] = Solubility of the compound in saline buffer at pH 3 to 8 in presence of 10% ethanol; type: physicochemical
# [16] = Chemical stability of the compound; type: physicochemical
# [17] = molecular target: T2, Fatty-acid amide hydrolase 1; assay: as §1
# [18] = as §2; type: tissue-based, Macaca mulatta
# [19] = molecular target: T1, Fatty-acid amide hydrolase 1; assay: Binding affinity to FAAH in rat cortical homogenates
# [20] = Apparent permeability of the compound; type: ADME; settings: not told
# Brain [21] = assay: Drug uptake in iv dosed rhesus monkey brain after 45 mins measured per mCi/kg by positron emission tomographic analysis; type: ADME, organism-based, Macaca mulatta; settings: in vivo, 0.75 h
# Hippocampus = assay: Drug uptake in rhesus monkey hippocampal regions at 5 mCi, iv after 45 mins by positron emission tomographic analysis; type: ADME, organism-based, Macaca mulatta; settings: in vivo, 0.75 h
# Striatum = assay: Drug uptake in rhesus monkey striatum at 5 mCi, iv after 45 mins by positron emission tomographic analysis; type: ADME, organism-based, Macaca mulatta; settings: in vivo, 0.75 h
# [22] = Drug uptake in rhesus monkey frontal cortex at 5 mCi, iv after 45 mins by positron emission tomographic analysis; type: ADME, organism-based, Macaca mulatta; settings: in vivo, 0.75 h
# Chain of Acetylcholinesterase (P22303 whole entry): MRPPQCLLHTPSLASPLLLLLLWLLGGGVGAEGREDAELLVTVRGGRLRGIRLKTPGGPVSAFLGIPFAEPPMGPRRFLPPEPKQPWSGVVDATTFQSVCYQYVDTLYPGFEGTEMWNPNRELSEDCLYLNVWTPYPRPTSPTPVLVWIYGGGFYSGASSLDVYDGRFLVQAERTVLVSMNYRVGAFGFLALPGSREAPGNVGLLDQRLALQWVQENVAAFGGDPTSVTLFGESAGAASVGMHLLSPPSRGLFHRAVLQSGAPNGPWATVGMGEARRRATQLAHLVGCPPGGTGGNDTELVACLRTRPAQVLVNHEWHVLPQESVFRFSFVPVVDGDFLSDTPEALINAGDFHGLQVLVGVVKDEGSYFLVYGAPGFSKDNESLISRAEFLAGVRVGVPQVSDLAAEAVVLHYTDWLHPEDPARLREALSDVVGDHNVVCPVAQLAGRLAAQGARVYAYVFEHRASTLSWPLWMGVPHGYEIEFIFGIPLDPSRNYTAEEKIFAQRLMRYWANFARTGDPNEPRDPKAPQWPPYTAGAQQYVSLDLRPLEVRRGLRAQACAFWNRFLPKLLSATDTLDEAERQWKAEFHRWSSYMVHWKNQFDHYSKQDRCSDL
# Chain of Cytochrome P450 3A4 (P08684 whole entry): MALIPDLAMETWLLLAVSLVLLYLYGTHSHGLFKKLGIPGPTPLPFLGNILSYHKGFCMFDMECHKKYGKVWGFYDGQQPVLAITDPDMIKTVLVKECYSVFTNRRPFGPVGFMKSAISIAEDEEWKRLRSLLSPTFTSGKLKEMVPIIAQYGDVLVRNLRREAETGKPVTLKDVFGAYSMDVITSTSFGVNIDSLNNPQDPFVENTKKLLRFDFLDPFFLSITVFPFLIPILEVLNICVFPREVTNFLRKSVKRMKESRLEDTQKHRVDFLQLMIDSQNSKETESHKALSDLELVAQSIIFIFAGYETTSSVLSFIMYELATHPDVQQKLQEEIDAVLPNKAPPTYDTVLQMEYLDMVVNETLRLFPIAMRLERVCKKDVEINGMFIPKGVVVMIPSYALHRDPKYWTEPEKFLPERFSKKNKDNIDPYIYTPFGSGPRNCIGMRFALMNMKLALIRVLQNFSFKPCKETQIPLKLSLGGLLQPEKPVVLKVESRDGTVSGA
# Chain of Voltage-gated inwardly rectifying potassium channel KCNH2 (Q12809 whole entry): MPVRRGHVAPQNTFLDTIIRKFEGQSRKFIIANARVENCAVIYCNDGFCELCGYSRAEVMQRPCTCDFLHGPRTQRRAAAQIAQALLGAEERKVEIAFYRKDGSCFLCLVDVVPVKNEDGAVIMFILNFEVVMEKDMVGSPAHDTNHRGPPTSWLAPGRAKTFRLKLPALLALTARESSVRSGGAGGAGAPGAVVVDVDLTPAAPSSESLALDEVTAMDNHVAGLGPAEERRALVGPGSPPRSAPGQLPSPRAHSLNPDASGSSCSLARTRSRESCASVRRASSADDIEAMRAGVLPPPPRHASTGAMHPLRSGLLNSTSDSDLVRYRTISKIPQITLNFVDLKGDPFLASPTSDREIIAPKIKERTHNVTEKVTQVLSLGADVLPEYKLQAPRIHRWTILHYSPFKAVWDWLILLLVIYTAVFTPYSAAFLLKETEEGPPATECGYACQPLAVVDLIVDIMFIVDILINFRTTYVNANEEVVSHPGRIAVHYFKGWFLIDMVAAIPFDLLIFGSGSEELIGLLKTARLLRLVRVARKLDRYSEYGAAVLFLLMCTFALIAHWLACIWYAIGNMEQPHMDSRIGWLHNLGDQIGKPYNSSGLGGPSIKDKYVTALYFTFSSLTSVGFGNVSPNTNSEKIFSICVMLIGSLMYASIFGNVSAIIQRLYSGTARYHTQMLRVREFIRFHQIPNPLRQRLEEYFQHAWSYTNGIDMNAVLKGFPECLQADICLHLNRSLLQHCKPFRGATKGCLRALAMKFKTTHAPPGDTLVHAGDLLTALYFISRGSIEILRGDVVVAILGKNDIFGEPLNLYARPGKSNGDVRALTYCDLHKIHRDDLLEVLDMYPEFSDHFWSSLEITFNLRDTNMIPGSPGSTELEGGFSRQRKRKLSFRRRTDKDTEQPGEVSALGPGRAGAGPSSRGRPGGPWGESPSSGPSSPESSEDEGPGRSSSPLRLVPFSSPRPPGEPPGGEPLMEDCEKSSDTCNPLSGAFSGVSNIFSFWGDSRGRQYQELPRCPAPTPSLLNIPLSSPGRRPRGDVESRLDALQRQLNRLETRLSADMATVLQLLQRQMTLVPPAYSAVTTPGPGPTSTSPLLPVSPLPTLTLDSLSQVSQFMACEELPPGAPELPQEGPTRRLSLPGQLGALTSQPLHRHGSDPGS
# Chain of Cannabinoid receptor 2 (P34972 whole entry): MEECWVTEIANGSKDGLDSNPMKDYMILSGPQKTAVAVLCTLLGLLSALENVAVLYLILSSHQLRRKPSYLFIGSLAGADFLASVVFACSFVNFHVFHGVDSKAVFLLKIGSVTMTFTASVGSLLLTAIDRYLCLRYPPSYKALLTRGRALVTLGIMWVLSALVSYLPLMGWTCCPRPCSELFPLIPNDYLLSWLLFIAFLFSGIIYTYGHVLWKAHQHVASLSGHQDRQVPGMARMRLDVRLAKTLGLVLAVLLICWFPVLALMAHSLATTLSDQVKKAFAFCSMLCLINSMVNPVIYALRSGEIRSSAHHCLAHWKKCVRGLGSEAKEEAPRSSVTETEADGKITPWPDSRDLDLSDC
# Chain of Cannabinoid receptor 1 (P21554 whole entry): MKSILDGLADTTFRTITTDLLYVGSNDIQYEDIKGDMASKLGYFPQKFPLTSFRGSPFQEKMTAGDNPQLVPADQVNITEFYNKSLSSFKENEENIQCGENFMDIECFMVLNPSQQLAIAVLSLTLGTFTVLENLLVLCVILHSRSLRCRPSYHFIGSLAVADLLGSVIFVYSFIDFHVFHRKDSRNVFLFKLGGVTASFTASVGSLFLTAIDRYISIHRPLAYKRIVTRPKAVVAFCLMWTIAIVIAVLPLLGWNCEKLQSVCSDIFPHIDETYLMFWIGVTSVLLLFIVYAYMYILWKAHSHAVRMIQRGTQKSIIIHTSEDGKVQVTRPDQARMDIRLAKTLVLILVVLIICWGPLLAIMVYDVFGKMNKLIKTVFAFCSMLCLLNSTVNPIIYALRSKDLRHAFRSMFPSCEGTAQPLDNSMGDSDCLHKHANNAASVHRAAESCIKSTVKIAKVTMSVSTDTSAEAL
logD [1],pIC50 [2],pIC50 [3],pIC50 [4],SMILES,other results
3,8.38,8.15,–,Cn1cnc(-c2ccc([C@H]3C[C@@H]3C(=O)NCCF)cc2)c1Sc1ccc(Cl)cn1,–
2.9,8.22,–,–,CNC(=O)[C@H]1C[C@@H]1c1ccc(-c2ncn(C)c2Sc2ccc(Cl)cn2)cc1,–
4.2,9.40,9.10,9.30,[11CH3]n1cc(Sc2ccc(Cl)cc2)c(-c2ccc3ccc(C(N)=O)nc3c2)n1,–
4,8.85,8.51,9.00,Cn1cnc(-c2ccc([C@H]3C[C@@H]3C(=O)NCCF)cc2)c1Sc1ccc(Cl)cc1,–
–,–,–,–,[3H]C([3H])([3H])n1cnc(-c2ccc([C@H]3C[C@@H]3C(=O)N(C)C)cc2)c1Sc1ccc(Cl)cn1,pKd [17]: 9.10; pKd [18]: 8.85; pKd [19]: 9.22
–,6.97,–,7.32,CN(C)C(=O)[C@H]1C[C@@H]1c1ccc(-c2nc(C3CC3)n(C)c2Sc2ccc(Cl)cn2)cc1,–
2,7.92,–,–,Cn1cnc(-c2ccc([C@H]3C[C@@H]3C(N)=O)cc2)c1Sc1ccc(Cl)cn1,–
3.6,8.77,–,9.10,Cn1cnc(-c2ccc([C@H]3C[C@@H]3C(N)=O)cc2)c1Sc1ccc(Cl)cc1,–
3.4,8.52,7.57,–,CN(CCF)C(=O)[C@H]1C[C@@H]1c1ccc(-c2ncn(C)c2Sc2ccc(Cl)cn2)cc1,–
–,7.47,–,7.87,Cc1nc(-c2ccc([C@H]3C[C@@H]3C(=O)N(C)C)cc2)c(Sc2ccc(Cl)cn2)n1C,–
3.8,8.85,–,9.30,CNC(=O)[C@H]1C[C@@H]1c1ccc(-c2ncn(C)c2Sc2ccc(Cl)cc2)cc1,–
4.3,8.89,8.06,8.96,CN(CCF)C(=O)[C@H]1C[C@@H]1c1ccc(-c2ncn(C)c2Sc2ccc(Cl)cc2)cc1,–
–,6.84,–,–,CN(C)C(=O)[C@H]1C[C@@H]1c1ccc(-c2nc[nH]c2Sc2ccc(Cl)cn2)cc1,–
3.8,8.38,7.48,8.30,NC(=O)[C@H]1C[C@@H]1c1ccc(-c2nn(C3CC3)cc2Sc2ccc(Cl)cc2)cc1,–
4.2,9.22,8.85,–,CN(C)C(=O)[C@H]1C[C@@H]1c1ccc(-c2ncn(C)c2Sc2ccc(Cl)cc2)cc1,–
–,5.86,–,6.08,CN(C)C(=O)[C@H]1C[C@@H]1c1ccc(-c2c(Sc3ccc(Cl)cn3)ncn2C)cc1,–
–,–,–,–,CN(C)C(=O)[C@H]1C[C@@H]1c1ccc(-c2ncn([11CH3])c2Sc2ccc(Cl)cn2)cc1 [MK-3168 C-11],Papp [20]: 27 ×10⁻⁶ cm/s; SUV (Brain [21]): > 1 nCi/cc; Drug uptake (Hippocampus): Active; Drug uptake (Striatum): Active; Drug uptake [22]: Active
–,8.32,–,–,CN(C)C(=O)[C@H]1C[C@@H]1c1ccc(-c2ncn(CCF)c2Sc2ccc(Cl)cn2)cc1,–

SMILES,logD [1],pIC50 [2],pIC50 [3],pIC50 [4],other results
CN(C)C(=O)[C@H]1C[C@@H]1c1ccc(-c2ncn(C)c2Sc2ccc(Cl)cn2)cc1 [MK-3168],3.3,8.77,8.26,–,Bmax [5]: 15 nM; Bmax (Macaca mulatta [6]): 21 nM; Kp at 2 h [7]: 7; Drug uptake (Brain [8]): Active; Activity [9]: Not Active; Activity [10]: Not Active; pIC50 (Cannabinoid receptor 2): 3.82; pIC50 (Cytochrome P450 3A4): < 4.30; pIC50 (Cannabinoid receptor 1): 4.52; pIC50 [11]: 4.43; pIC50 [12]: 4.80; IC50 (Phosphodiesterase 4): 9750 nM; pIC50 (Acetylcholinesterase): 5.79; IC90 (Macaca mulatta [13]): 29 nM; IC90 [14]: 5.5 nM; solubility [15]: soluble; Stability [16]: 24 h
